Patent publication US20220220128A1, “HETEROCYCLIC COMPOUNDS AS KINASE INHIBITORS, COMPOSITIONS COMPRISING THE HETEROCYCLIC COMPOUND, AND METHODS OF USE THEREOF” (JS Innopharm (Shanghai) Ltd, priority 2019, published 2022)

Tests used:
human RET kinase = biological target: T1, human RET kinase (Homo sapiens, UniProt P07949); assay: RET Kinase Assay (LanthaScreen TR-FRET enzymatic assay); assay type: biochemical; conditions: 7 nM RET, 23 μM ATP
T1 construct: purchased Carna 08-159
Summary of the method: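 TR-FRET enzymatic read-out using 23 μM ATP, 3 μM FAM-P2 substrate and 7 nM human RET, after 15-min compound pretreatment at room temperature and a 1 h reaction at 28° C in HEPES pH 7.5 buffer. Percent of DMSO control fitted to nonlinear sigmoid curves for IC50.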

human KDR kinase = biological target: T2, human KDR kinase (Homo sapiens, UniProt P35968); assay: KDR Kinase Assay (LanthaScreen TR-FRET enzymatic assay); assay type: biochemical; conditions: 1.2 nM KDR, 92 μM ATP
T2 construct: purchased Carna 08-191
T2 sequence (P35968 20-1356): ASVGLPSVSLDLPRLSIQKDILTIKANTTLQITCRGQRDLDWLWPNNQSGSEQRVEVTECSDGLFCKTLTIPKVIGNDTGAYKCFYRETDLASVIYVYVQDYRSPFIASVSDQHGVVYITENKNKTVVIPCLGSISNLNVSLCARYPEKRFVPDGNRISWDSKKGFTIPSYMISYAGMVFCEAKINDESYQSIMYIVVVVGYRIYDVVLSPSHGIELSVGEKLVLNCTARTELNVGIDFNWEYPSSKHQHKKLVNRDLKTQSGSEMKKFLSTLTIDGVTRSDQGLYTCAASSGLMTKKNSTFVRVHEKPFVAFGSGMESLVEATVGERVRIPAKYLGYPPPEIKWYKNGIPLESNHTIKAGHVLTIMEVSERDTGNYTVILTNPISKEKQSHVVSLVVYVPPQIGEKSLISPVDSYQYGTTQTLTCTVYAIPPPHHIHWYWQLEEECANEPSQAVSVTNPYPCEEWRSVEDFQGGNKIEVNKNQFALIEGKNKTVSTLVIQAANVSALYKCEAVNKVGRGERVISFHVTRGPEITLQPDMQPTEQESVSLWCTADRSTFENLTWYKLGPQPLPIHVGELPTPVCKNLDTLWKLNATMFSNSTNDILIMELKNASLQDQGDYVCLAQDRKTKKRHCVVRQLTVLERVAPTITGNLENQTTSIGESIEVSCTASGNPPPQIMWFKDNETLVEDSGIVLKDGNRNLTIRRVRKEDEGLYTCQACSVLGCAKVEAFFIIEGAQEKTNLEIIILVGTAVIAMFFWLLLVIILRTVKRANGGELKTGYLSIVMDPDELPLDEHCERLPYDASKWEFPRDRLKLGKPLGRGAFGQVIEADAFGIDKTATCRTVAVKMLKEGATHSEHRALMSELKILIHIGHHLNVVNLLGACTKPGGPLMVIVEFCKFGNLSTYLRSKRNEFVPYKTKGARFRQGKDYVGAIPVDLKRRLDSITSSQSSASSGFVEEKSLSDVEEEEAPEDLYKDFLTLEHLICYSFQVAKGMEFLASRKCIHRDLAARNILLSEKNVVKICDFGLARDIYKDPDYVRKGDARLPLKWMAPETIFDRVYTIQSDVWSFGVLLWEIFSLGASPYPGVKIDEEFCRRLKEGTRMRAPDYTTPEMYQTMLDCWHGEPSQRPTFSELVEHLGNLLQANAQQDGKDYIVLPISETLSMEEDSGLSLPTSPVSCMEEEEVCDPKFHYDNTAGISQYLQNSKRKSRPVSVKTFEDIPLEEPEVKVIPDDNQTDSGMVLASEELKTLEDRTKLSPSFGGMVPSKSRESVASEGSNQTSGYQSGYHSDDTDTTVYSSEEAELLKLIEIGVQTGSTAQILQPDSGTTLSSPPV
Summary of the method: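 TR-FRET enzymatic format: after 15-min room-temperature compound pretreatment, 1.2 nM human KDR phosphorylated 3 μM FAM-P22 with 92 μM ATP (HEPES pH 7.5, 28° C., one hour). Reactions were quenched with EDTA buffer. IC50 came from nonlinear sigmoid fits of percent-of-vehicle signal ratios.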

TT cells = assay: TT Cell Proliferation Assay (WST-8, 8 days); assay type: cell-based; conditions: Homo sapiens, TT, 192 h, growth inhibition in TT cells, read-out: TT Cellular Activity
Summary of the method: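 IC50 was derived from absorbance at 450 nm after 5 h with WST-8, following 8 days' incubation at 37 °C. Final compound levels spanned 0.0005–5 μM in 0.5% DMSO. TT cells were seeded at 6,000 per well in 10% FBS RPMI-1640 and left to attach for 24 h beforehand.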

BAF3-KIF5B-RET cells = biological target: T3, BAF3-KIF5B-RET cells (Homo sapiens, UniProt P07949); assay: BAF3-KIF5B-RET Cell proliferation assay (CellTiter-Glo, 72 hours); assay type: cell-based; conditions: growth inhibition, read-out: BA/F3-KIF5B-RET Cellular activity
T3 construct: fused on or other part: P33176 (Kinesin-1 heavy chain)
T3 sequence (P07949 whole entry, change not shown, the tested form may be a part): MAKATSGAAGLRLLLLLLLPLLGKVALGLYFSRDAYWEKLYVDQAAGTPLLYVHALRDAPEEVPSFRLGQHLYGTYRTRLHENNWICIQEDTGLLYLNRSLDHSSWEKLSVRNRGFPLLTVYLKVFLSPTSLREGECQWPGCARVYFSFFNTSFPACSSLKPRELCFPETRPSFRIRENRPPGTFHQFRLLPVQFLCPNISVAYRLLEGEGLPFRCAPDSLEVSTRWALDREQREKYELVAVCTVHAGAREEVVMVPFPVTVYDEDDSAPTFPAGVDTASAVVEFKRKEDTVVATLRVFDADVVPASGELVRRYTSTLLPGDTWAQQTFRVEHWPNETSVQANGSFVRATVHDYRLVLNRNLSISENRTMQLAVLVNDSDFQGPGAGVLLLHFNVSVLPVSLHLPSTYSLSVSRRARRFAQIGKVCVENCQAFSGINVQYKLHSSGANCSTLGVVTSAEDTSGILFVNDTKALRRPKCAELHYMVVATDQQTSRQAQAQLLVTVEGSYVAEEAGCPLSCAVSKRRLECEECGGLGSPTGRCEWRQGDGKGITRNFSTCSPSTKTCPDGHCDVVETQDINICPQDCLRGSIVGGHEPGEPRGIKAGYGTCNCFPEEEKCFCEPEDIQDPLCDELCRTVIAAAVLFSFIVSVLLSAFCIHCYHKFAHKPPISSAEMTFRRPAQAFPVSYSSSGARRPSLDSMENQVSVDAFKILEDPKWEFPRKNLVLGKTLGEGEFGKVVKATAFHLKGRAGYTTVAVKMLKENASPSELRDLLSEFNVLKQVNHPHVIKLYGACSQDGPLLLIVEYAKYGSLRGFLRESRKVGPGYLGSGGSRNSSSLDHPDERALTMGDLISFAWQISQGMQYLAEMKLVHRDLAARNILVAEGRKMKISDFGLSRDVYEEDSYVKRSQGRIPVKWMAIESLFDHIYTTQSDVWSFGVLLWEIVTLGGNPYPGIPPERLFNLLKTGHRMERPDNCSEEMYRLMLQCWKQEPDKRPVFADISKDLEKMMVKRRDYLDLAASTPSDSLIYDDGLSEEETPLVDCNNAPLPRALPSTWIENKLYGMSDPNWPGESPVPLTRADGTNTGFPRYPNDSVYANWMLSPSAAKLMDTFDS
Summary of the method: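 Cells seeded at 2,000/well in RPMI-1640 with 10% FBS and left 24 h at 37 °C, then exposed 72 h to nine compound levels (final 1 μM down to 0.00015 μM, 0.1% DMSO). CellTiter-Glo luminescence gave viability versus DMSO wells, from which IC50 was fitted.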

T1 sequence (P07949 29-1114): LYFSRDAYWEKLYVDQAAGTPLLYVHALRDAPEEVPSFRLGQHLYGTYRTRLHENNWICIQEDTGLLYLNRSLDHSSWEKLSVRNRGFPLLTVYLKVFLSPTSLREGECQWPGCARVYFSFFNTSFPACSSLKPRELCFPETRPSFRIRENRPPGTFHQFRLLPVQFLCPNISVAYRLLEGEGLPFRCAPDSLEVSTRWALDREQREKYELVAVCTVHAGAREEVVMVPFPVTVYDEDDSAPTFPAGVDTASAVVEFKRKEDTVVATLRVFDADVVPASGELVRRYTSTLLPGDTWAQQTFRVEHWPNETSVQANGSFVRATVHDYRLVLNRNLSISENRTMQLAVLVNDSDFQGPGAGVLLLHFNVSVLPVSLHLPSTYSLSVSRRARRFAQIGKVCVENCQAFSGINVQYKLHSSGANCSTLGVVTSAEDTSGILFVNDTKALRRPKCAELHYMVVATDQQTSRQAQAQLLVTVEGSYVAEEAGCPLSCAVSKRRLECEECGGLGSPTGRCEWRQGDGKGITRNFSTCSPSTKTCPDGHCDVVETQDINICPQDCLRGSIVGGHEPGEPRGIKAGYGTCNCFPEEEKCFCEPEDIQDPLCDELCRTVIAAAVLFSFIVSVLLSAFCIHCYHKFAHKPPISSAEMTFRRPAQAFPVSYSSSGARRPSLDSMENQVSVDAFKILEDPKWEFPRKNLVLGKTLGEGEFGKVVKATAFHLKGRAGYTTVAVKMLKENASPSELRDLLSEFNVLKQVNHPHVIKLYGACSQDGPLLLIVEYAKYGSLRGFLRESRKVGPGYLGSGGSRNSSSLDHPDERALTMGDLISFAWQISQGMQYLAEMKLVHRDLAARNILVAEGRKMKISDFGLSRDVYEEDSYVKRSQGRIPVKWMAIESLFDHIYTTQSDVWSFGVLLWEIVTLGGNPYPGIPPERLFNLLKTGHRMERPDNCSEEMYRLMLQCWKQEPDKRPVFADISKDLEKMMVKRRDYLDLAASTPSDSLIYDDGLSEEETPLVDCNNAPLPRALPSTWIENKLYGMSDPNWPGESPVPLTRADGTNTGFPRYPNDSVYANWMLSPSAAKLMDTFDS

| SMILES | IC50 (human RET kinase) [nM] | IC50 (human KDR kinase) [nM] | GI50 (BAF3-KIF5B-RET cells) [nM] | IC50 (TT cells) [nM] |
| --- | --- | --- | --- | --- |
| COc1ccc(CN[C@]2(C)C[C@H]3CN(c4ccc(-c5cc(-c6cnn(C)c6)cn6ncc(C#N)c56)cn4)C[C@H]3C2)cn1 [Example 152, 4-(6-((3aR,5s,6aS)-5-(((6-methoxypyridin-3-yl)methyl)amino)-5-methylhexahydrocyclopenta[c]pyrrol-2(1H)-yl)pyridin-3-yl)-6-(1-methyl-1H-pyrazol-4-yl)pyrazolo[1,5-a]pyridine-3-carbonitrile] | ≤ 10 | 10 to 50 | 50 to 100 | – |
| CC(C)(O)COc1cc(-c2cnc(N3C[C@@H]4C[C@@](C)(NC(=O)c5ncccc5Cl)C[C@@H]4C3)cn2)c2c(C#N)cnn2c1 [Example 143, 3-chloro-N-((3aR,5s,6aS)-2-(5-(3-cyano-6-(2-hydroxy-2-methylpropoxy)pyrazolo[1,5-a]pyridin-4-yl)pyrazin-2-yl)-5-methyloctahydrocyclopenta[c]pyrrol-5-yl)picolinamide] | ≤ 10 | > 100 | 10 to 50 | – |
| CC(C)(O)COc1cc(-c2cnc(N3C[C@@H]4[C@@H](CNC(=O)c5ncccc5Cl)[C@@H]4C3)cn2)c2c(C#N)cnn2c1 [Example 103, 3-chloro-N-(((1R,5S,6s)-3-(5-(3-cyano-6-(2-hydroxy-2-methylpropoxy)pyrazolo[1,5-a]pyridin-4-yl)pyrazin-2-yl)-3-azabicyclo[3.1.0]hexan-6-yl)methyl)picolinamide] | ≤ 10 | > 100 | 10 to 50 | – |
| COc1ccc(C(=O)NC23CC4CC(C2)N(c2ccc(-c5cc(OCC(C)(C)O)cn6ncc(C#N)c56)cn2)C(C4)C3)cn1 [Example 138, N-((1R,3S,5s,7s)-2-(5-(3-cyano-6-(2-hydroxy-2-methylpropoxy)pyrazolo[1,5-a]pyridin-4-yl)pyridin-2-yl)-2-azaadamantan-5-yl)-6-methoxynicotinamide] | ≤ 10 | ≤ 10 | 10 to 50 | – |

Continued, in another order:

| IC50 (human RET kinase) [nM] | IC50 (human KDR kinase) [nM] | GI50 (BAF3-KIF5B-RET cells) [nM] | SMILES | IC50 (TT cells) [nM] |
| --- | --- | --- | --- | --- |
| ≤ 10 | 10 to 50 | ≤ 10 | CC(C)C(O)C(=O)NC[C@@H]1[C@H]2CN(c3ccc(-c4cc(-c5cnn(C)c5)cn5ncc(C#N)c45)cn3)C[C@@H]12 (stereo partly drawn) [Example 75, N-(((1R,5S,6s)-3-(5-(3-cyano-6-(1-methyl-1H-pyrazol-4-yl)pyrazolo[1,5-a]pyridin-4-yl)pyridin-2-yl)-3-azabicyclo[3.1.0]hexan-6-yl)methyl)-2-hydroxy-3-methylbutanamide] | ≤ 10 |
| ≤ 10 | ≤ 10 | ≤ 10 | Cn1cc(-c2cc(-c3ccc(N4C[C@@H]5C[C@@](C)(NC(=O)c6ncccc6Cl)C[C@@H]5C4)nc3)c3c(C#N)cnn3c2)cn1 [Example 55, 3-chloro-N-((3aR,5s,6aS)-2-(5-(3-cyano-6-(1-methyl-1H-pyrazol-4-yl)pyrazolo[1,5-a]pyridin-4-yl)pyridin-2-yl)-5-methyloctahydro-cyclopenta[c]pyrrol-5-yl)picolinamide] | ≤ 10 |
| ≤ 10 | 10 to 50 | 10 to 50 | Cn1cc(-c2cc(-c3ccc(N4C[C@@H]5[C@H](C4)[C@H]5NC(=O)c4ncccc4Cl)nc3)c3c(C#N)cnn3c2)cn1 [Example 20, 3-chloro-N-((1R,5S,6s)-3-(5-(3-cyano-6-(1-methyl-1H-pyrazol-4-yl)pyrazolo[1,5-a]pyridin-4-yl)pyridin-2-yl)-3-azabicyclo[3.1.0]hexan-6-yl)picolinamide] | 10 to 50 |
| ≤ 10 | ≤ 10 | ≤ 10 | CC(=O)NC12CC3CC(C1)N(c1ccc(-c4cc(-c5cnn(C)c5)cn5ncc(C#N)c45)cn1)C(C3)C2 [Example 97, N-((1R,3S,5s,7s)-2-(5-(3-cyano-6-(1-methyl-1H-pyrazol-4-yl)pyrazolo[1,5-a]pyridin-4-yl)pyridin-2-yl)-2-azaadamantan-5-yl)acetamide] | ≤ 10 |
